Test results: patent US10829520B2, “Beta-hairpin peptidomimetics” (POLYPHOR AG, priority 2015, dated 2020)
Read-outs that look alike come from different tables or passages of the source. Where a SMILES comes first, the peptide text is derived from it. Bridges are numbered along the chain shown (N, C = ends). Roman numbers before positions name the chains, in order. [ ]: non-standard residue; d: D form. Tle = CC(C)(C)[C@H](N)C(=O)O; dDab = NCC[C@@H](N)C(=O)O; Dab = NCC[C@H](N)C(=O)O

What was measured:
Type in all cases: cell-based
[1] = system: Acinetobacter baumannii DSM 30008
Summary of the method: (§1)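 MIC in μg/mL; CLSI microdilution; cation-adjusted Mueller-Hinton II with Polysorbate 80 (0.002%); 10^6 CFU/mL; 35° C, 18-20 h.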

[2] = system: Klebsiella pneumoniae 968733
[3] = system: Pseudomonas aeruginosa ATCC 27853
Summary of the method: as §1

[4] = system: Acinetobacter baumannii 872842
[5] = system: Escherichia coli ATCC 25922
Summary of the method: as §1

[6] = system: Klebsiella pneumoniae SSI #3010
Summary of the method: as §1

Escherichia coli 926415 = system: Escherichia coli 926415
[7] = system: human red blood cells (hRBC); test: Hemolysis of human red blood cells
Summary of the method: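 Fresh human red blood cells are washed in PBS, then shaken with peptide (100 μg/mL) at 37° C. for 1 h, final erythrocyte density about 0.9×10^9 cells/mL. After centrifugation, diluted supernatants are read at 540 nm against buffer (0%) and Triton X-100 (100%) lysis controls.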

[8] = clinical isolate, Mueller-Hinton II broth, P-80 0.002% present

CC(C)C[C@@H]1NC(=O)[C@@H](CC(C)C)NC(=O)[C@H](CCN)NC(=O)[C@@H](NC(=O)[C@H](CCN)NC(=O)[C@@H](NC(=O)[C@H](CCN)NC(=O)CC[C@@H]2NC(=O)[C@H](CCN)NC(=O)[C@H](Cc3ccc(O)cc3)NC(=O)[C@H](CO)NC(=O)[C@H](CC(C)C)NC(=O)[C@@H]3CCCN3C(=O)[C@H]3CCCN3C(=O)[C@H](CO)NC(=O)[C@H](Cc3ccc(O)cc3)NC(=O)[C@H](C(C)C)NC(=O)[C@H](CCN)NC(=O)[C@H](Cc3c[nH]c4ccccc34)NC(=O)[C@H](CCN)NC(=O)[C@@H](CCN)NC2=O)[C@@H](C)O)CCNC(=O)[C@H]([C@@H](C)O)NC(=O)[C@H](CCN)NC(=O)[C@H](CCN)NC1=O [Ex. 95] (I: cyclo(LSY[Dab]E[dDab][Dab]W[Dab]VYS[dP]P) / II: [Dab]T[Dab][Dab][Dab][dL]L[Dab][Dab]T; amide I:5-II:N; lactam II:4-II:C)
Acinetobacter baumannii DSM 30008 MIC ([1]; DSM 30008): 0.5 mg/L | Klebsiella pneumoniae 968733 MIC [2]; 968733: 1 mg/L | Pseudomonas aeruginosa ATCC 27853 MIC ([3]; ATCC 27853): 0.5 mg/L | Acinetobacter baumannii 872842 MIC [4]; 872842: 1 mg/L | Escherichia coli ATCC 25922 MIC ([5]; ATCC 25922): 0.25 mg/L | Klebsiella pneumoniae SSI #3010 MIC ([6]; SSI #3010): 0.5 mg/L | Escherichia coli 926415 MIC (Escherichia coli 926415; 926415): 1 mg/L | Hemolysis at 100 μg/mL ([7]; red cells of human, 1 h, 100): 1%

CC(C)C[C@@H]1NC(=O)[C@@H](CC(C)C)NC(=O)[C@H](CCN)NC(=O)[C@@H](NC(=O)[C@H](CCN)NC(=O)[C@@H](NC(=O)[C@H](CCN)NC(=O)CC[C@@H]2NC(=O)[C@H](CCN)NC(=O)[C@H](Cc3ccc(O)cc3)NC(=O)[C@H](CO)NC(=O)[C@H](CC(C)C)NC(=O)[C@@H]3CCCN3C(=O)[C@H]3CCCN3C(=O)[C@H](Cc3ccc(O)cc3)NC(=O)[C@H]([C@@H](C)O)NC(=O)[C@H](C(C)C)NC(=O)[C@H](CCN)NC(=O)[C@H](Cc3c[nH]c4ccccc34)NC(=O)[C@H](CCN)NC(=O)[C@@H](CCN)NC2=O)[C@@H](C)O)CCNC(=O)[C@H]([C@@H](C)O)NC(=O)[C@H](CCN)NC(=O)[C@H](CCN)NC1=O [Ex. 96] (I: cyclo(W[Dab]VTY[dP]PLSY[Dab]E[dDab][Dab]) / II: [Dab]T[Dab][Dab][Dab][dL]L[Dab][Dab]T; amide I:12-II:N; lactam II:4-II:C)
Acinetobacter baumannii DSM 30008 MIC ([1]; DSM 30008): 0.25 mg/L | Klebsiella pneumoniae 968733 MIC [2]; 968733: 1 mg/L | Pseudomonas aeruginosa ATCC 27853 MIC ([3]; ATCC 27853): 0.5 mg/L | Acinetobacter baumannii 872842 MIC [4]; 872842: 1 mg/L | Escherichia coli ATCC 25922 MIC ([5]; ATCC 25922): 0.125 mg/L | Klebsiella pneumoniae SSI #3010 MIC ([6]; SSI #3010): 0.25 mg/L | Escherichia coli 926415 MIC (Escherichia coli 926415; 926415): 0.25 mg/L | Hemolysis at 100 μg/mL ([7]; red cells of human, 1 h, 100): 4%

CC(C)C[C@@H]1NC(=O)[C@@H](CC(C)C)NC(=O)[C@H](CCN)NC(=O)[C@@H](NC(=O)[C@H](CCN)NC(=O)[C@@H](NC(=O)[C@H](CCN)NC(=O)CC[C@@H]2NC(=O)[C@@H]3CSSC[C@H](NC(=O)[C@H](Cc4c[nH]c5ccccc45)NC(=O)[C@H](CCN)NC(=O)[C@@H](CCN)NC2=O)C(=O)N[C@@H](C(C)(C)C)C(=O)N[C@@H]([C@@H](C)O)C(=O)N[C@@H](CO)C(=O)N2CCC[C@@H]2C(=O)N2CCC[C@H]2C(=O)N[C@@H](CC(C)C)C(=O)N[C@@H](CO)C(=O)N[C@@H](Cc2ccc(O)cc2)C(=O)N3)[C@@H](C)O)CCNC(=O)[C@H]([C@@H](C)O)NC(=O)[C@H](CCN)NC(=O)[C@H](CCN)NC1=O [Ex. 98] (I: cyclo(LSYCE[dDab][Dab]WC[Tle]TS[dP]P) / II: [Dab]T[Dab][Dab][Dab][dL]L[Dab][Dab]T; disulfide I:4-I:9; amide I:5-II:N; lactam II:4-II:C)
Acinetobacter baumannii DSM 30008 MIC ([1]; Mueller-Hinton II broth): 0.0625 mg/L | Klebsiella pneumoniae 968733 MIC [2, 8]: 0.5 mg/L | Pseudomonas aeruginosa ATCC 27853 MIC ([3]; Mueller-Hinton II broth): 0.25 mg/L | Acinetobacter baumannii 872842 MIC [4, 8]: 0.25 mg/L | Escherichia coli ATCC 25922 MIC ([5]; Mueller-Hinton II broth): 0.125 mg/L | Klebsiella pneumoniae SSI #3010 MIC ([6]; Mueller-Hinton II broth): 0.125 mg/L | Escherichia coli 926415 MIC (Escherichia coli 926415; [8]): 0.5 mg/L | Hemolysis at 100 μg/mL ([7]; 100 μg/mL, 20% hRBC, 1 h at 37° C.): 2%

CC(C)C[C@@H]1NC(=O)[C@H](CCN)NC(=O)[C@@H](CCN)NC(=O)[C@H](CCC(=O)N[C@@H](CCN)C(=O)N[C@H](C(=O)N[C@@H](CCN)C(=O)N[C@H]2CCNC(=O)[C@H]([C@@H](C)O)NC(=O)[C@H](CCN)NC(=O)[C@H](CCN)NC(=O)[C@H](CC(C)C)NC(=O)[C@@H](CC(C)C)NC(=O)[C@H](CCN)NC2=O)[C@@H](C)O)NC(=O)[C@H](CCN)NC(=O)[C@H](Cc2ccc(O)cc2)NC(=O)[C@H](CO)NC(=O)[C@H](CC(C)C)NC(=O)[C@@H]2CCCN2C(=O)[C@H]2CCCN2C(=O)[C@H](Cc2ccc(O)cc2)NC(=O)[C@H]([C@@H](C)O)NC(=O)[C@H](C(C)C)NC(=O)[C@H](CCN)NC1=O [Ex. 99] (I: cyclo(LSY[Dab]E[dDab][Dab]L[Dab]VTY[dP]P) / II: [Dab]T[Dab][Dab][Dab][dL]L[Dab][Dab]T; amide I:5-II:N; lactam II:4-II:C)
Acinetobacter baumannii DSM 30008 MIC ([1]; DSM 30008): 0.25 mg/L | Klebsiella pneumoniae 968733 MIC [2]; 968733: 0.5 mg/L | Pseudomonas aeruginosa ATCC 27853 MIC ([3]; ATCC 27853): 0.5 mg/L | Acinetobacter baumannii 872842 MIC [4]; 872842: 0.25 mg/L | Escherichia coli ATCC 25922 MIC ([5]; ATCC 25922): 0.125 mg/L | Klebsiella pneumoniae SSI #3010 MIC ([6]; SSI #3010): 0.25 mg/L | Escherichia coli 926415 MIC (Escherichia coli 926415; 926415): 0.25 mg/L | Hemolysis at 100 μg/mL ([7]; red cells of human, 1 h, 100): 4%
